The values below come from patent US12479847B2 (DANA-FARBER CANCER INSTITUTE, INC., priority 2019, dated 2025).

The target in assay [1] is T1, panel of 468 kinases (Homo sapiens, UniProt Q6P3R8).
T1 construct: purchased KINOMEscan (ScanMAX) service
T1 sequence (Q6P3R8 1-708): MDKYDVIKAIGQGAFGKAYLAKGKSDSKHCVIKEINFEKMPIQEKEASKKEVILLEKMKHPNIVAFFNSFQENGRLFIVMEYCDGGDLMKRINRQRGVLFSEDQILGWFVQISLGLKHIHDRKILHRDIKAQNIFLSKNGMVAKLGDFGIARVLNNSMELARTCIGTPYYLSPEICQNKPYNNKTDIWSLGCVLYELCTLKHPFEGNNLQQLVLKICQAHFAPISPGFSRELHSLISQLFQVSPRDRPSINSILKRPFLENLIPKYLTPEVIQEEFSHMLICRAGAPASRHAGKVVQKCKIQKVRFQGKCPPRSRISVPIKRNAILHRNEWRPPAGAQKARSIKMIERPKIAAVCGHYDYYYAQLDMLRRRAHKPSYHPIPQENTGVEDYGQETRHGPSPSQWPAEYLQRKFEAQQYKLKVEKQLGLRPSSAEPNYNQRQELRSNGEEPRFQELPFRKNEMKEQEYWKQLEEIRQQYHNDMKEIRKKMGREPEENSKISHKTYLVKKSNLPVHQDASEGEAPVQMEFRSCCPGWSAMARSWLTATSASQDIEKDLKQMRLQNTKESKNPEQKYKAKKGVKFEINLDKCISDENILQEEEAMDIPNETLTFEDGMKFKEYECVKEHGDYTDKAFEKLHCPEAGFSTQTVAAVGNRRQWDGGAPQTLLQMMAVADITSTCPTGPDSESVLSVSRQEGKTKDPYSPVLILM
As to the kind of experiment: KINOMEscan (ScanMAX) kinase profiling. The assay is classed as binding. Particulars: NEK5; 1 μM; read-out: % control.

The target of assay [2] is T2, panel of 468 kinases (Homo sapiens, UniProt Q9NRP7).
T2 construct: purchased KINOMEscan (ScanMAX) service
T2 sequence (Q9NRP7 1-1315): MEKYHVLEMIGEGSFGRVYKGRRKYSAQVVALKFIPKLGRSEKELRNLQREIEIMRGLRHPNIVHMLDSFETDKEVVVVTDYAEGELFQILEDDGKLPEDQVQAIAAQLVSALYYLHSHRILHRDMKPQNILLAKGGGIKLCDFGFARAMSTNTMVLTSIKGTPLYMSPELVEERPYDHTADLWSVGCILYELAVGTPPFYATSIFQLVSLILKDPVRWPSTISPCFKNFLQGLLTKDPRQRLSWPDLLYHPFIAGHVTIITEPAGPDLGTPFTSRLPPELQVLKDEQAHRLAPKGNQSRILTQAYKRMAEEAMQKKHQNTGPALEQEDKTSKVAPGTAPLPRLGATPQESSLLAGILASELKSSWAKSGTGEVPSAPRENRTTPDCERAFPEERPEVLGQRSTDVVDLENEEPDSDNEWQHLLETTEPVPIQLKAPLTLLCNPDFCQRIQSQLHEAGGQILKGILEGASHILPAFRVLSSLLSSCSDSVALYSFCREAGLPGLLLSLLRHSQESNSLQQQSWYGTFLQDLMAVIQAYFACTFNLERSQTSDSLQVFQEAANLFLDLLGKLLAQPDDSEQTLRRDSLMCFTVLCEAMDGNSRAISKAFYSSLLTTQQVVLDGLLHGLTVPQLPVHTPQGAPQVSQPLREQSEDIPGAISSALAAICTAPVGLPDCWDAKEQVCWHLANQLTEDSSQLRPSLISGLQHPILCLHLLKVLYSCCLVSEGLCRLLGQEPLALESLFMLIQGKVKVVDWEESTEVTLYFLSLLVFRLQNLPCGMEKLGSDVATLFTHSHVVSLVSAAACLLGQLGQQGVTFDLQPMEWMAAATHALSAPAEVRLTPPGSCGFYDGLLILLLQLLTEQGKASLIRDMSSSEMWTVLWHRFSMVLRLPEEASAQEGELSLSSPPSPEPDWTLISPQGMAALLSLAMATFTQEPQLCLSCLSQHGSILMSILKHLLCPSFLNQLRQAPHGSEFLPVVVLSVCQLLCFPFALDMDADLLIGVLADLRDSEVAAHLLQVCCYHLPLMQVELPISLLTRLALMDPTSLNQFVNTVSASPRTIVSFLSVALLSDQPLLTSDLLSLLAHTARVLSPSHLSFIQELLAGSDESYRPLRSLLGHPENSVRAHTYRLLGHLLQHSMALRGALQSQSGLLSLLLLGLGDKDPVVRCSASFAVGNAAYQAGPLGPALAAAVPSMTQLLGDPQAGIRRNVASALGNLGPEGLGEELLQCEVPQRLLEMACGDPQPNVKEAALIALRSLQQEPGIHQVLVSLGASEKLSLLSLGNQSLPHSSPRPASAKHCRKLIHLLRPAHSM
Kind of assay: KINOMEscan (ScanMAX) kinase profiling. It counts as binding. Conditions: STK36; 1 μM; read-out: % control.

In the case of `CNc1nc(Nc2ccc(S(=O)(=O)N3CCC(N4CCOCC4)CC3)cc2OC)nc2[nH]cc(Cl)c12` [Compound 12, 5-chloro-N2-(2-methoxy-4-((4-morpholinopiperidin-1-yl)sulfonyl)phenyl)-N4-methyl-7H-pyrrolo[2,3-d]pyrimidine-2,4-diamine], the remaining binding at 1 µM on panel of 468 kinases [1] and at panel of 468 kinases [2] was 100% each time.

In the case of `CNc1nc(Nc2ccc(P3(=O)CCN(C4CCOCC4)CC3)cc2OC)nc2[nH]cc(Cl)c12` [Compound 77, 4-(4-((5-chloro-4-(methylamino)-7H-pyrrolo[2,3-d]pyrimidin-2-yl)amino)-3-methoxyphenyl)-1-(tetrahydro-2H-pyran-4-yl)-1,4-azaphosphinane 4-oxide], the remaining binding at 1 µM on panel of 468 kinases [1] turned out to be 98%; on panel of 468 kinases [2], 100%.

On to `CNc1nc(Nc2ccc(C(=O)N3CCC(N4CCOCC4)CC3)c3c2OCO3)nc2[nH]cc(Cl)c12` [Compound 75, (7-((5-chloro-4-(methylamino)-7H-pyrrolo[2,3-d]pyrimidin-2-yl)amino)benzo[d][1,3]dioxol-4-yl)(4-morpholinopiperidin-1-yl)methanone], for which the remaining binding at 1 µM amounted to 97% on panel of 468 kinases [1] and 100% at panel of 468 kinases [2].
